Assay results taken from patent US12590067B2, “Herbicidal cyclohexanedione derivatives” (SYNGENTA CROP PROTECTION AG, priority 2019, dated 2026).

Tests used:
Assay in all cases: Glasshouse herbicidal test, pre- and post-emergence, percentage damage to the plant
Format in all cases: in vivo
[1] = tested on: Echinochloa crus-galli (ECHCG); conditions: 250 g/h, evaluated after 13 days; for ECHCG POST percentage damage caused to the plant (five-point scale): post-emergence; for ECHCG PRE percentage damage caused to the plant (five-point scale): pre-emergence
Description: (§1) Seeds of a variety of test species are sown in standard soil in pots (Lolium perenne (LOLPE), Setaria faberi (SETFA), Alopecurus myosuroides (ALOMY), Echinochloa crus-galli (ECHCG), Avena fatua (AVEFA)). After cultivation for one day (pre-emergence) or after 8 days cultivation (post-emergence) under controlled conditions in a glasshouse (at 24/16° C., day/night; 14 hours light; 65% humidity), the plants are sprayed with an aqueous spray solution derived from the formulation of the technical active ingredient in acetone/water (50:50) solution containing 0.5% Tween 20 (polyoxyethelyene sorbitan monolaurate, CAS RN 9005-64-5). Compounds are applied at 250 g/h. The test plants are then grown in a glasshouse under controlled conditions in a glasshouse (at 24/16° C., day/night; 14 hours light; 65% humidity) and watered twice daily. After 13 days for pre and post-emergence, the test is evaluated for the percentage damage caused to the plant. The biological activities are shown in the following table on a five-point scale (5=80-100%; 4=60-79%; 3=40-59%; 2=20-39%; 1=0-19%).

Avena fatua (AVEFA) = conditions: 250 g/h, evaluated after 13 days; for AVEFA POST percentage damage caused to the plant (five-point scale): post-emergence; for AVEFA PRE percentage damage caused to the plant (five-point scale): pre-emergence
Description: as §1

Lolium perenne (LOLPE) = conditions: 250 g/h, evaluated after 13 days; for LOLPE POST percentage damage caused to the plant (five-point scale): post-emergence; for LOLPE PRE percentage damage caused to the plant (five-point scale): pre-emergence
Description: as §1

Setaria faberi (SETFA) = conditions: 250 g/h, evaluated after 13 days; for SETFA POST percentage damage caused to the plant (five-point scale): post-emergence; for SETFA PRE percentage damage caused to the plant (five-point scale): pre-emergence
Description: as §1

[2] = tested on: Alopecurus myosuroides (ALOMY); conditions: 250 g/h, evaluated after 13 days; for ALOMY POST percentage damage caused to the plant (five-point scale): post-emergence; for ALOMY PRE percentage damage caused to the plant (five-point scale): pre-emergence
Description: as §1

Row | SMILES | ECHCG POST percentage damage caused to the plant (five-point scale) [1] | ECHCG PRE percentage damage caused to the plant (five-point scale) [1] | AVEFA POST percentage damage caused to the plant (five-point scale) (Avena fatua (AVEFA)) | AVEFA PRE percentage damage caused to the plant (five-point scale) (Avena fatua (AVEFA)) | LOLPE POST percentage damage caused to the plant (five-point scale) (Lolium perenne (LOLPE)) | LOLPE PRE percentage damage caused to the plant (five-point scale) (Lolium perenne (LOLPE)) | SETFA POST percentage damage caused to the plant (five-point scale) (Setaria faberi (SETFA)) | SETFA PRE percentage damage caused to the plant (five-point scale) (Setaria faberi (SETFA)) | ALOMY POST percentage damage caused to the plant (five-point scale) [2] | ALOMY PRE percentage damage caused to the plant (five-point scale) [2]
1 | CC#Cc1cc(Cl)c(C2C(=O)CC3(CCN(C(C)=O)CC3)CC2=O)c(OC)c1 [Compound A1] | 5 (5=80-100%) | 5 (5=80-100%) | 5 (5=80-100%) | 5 (5=80-100%) | 5 (5=80-100%) | 5 (5=80-100%) | 5 (5=80-100%) | 5 (5=80-100%) |  | 
2 | CC#Cc1cc(Cl)c(C2C(=O)CC3(CCN(S(=O)(=O)CC)CC3)CC2=O)c(OC)c1 [Compound A2] | 5 (5=80-100%) | 5 (5=80-100%) | 5 (5=80-100%) | 5 (5=80-100%) | 5 (5=80-100%) | 5 (5=80-100%) | 5 (5=80-100%) | 5 (5=80-100%) | 5 (5=80-100%) | 5 (5=80-100%)
3 | CC#Cc1cc(Cl)c(C2C(=O)CC3(CCN(C(=O)c4ccccc4)CC3)CC2=O)c(OC)c1 [Compound A3, 3-benzoyl-9-(2-chloro-6-methoxy-4-prop-1-ynyl-phenyl)-3-azaspiro[5.5]undecane-8,10-dione] | 5 (5=80-100%) | 5 (5=80-100%) | 5 (5=80-100%) | 5 (5=80-100%) | 5 (5=80-100%) | 5 (5=80-100%) | 5 (5=80-100%) | 5 (5=80-100%) | 5 (5=80-100%) | 5 (5=80-100%)
4 | CC#Cc1cc(Cl)c(C2C(=O)CC3(CCN(C(=O)c4ccccn4)CC3)CC2=O)c(OC)c1 [Compound A4] | 5 (5=80-100%) | 5 (5=80-100%) | 5 (5=80-100%) | 5 (5=80-100%) | 5 (5=80-100%) | 5 (5=80-100%) | 5 (5=80-100%) | 5 (5=80-100%) | 5 (5=80-100%) | 5 (5=80-100%)
5 | CC#Cc1cc(Cl)c(C2C(=O)CC3(CCN(C(=O)COC)CC3)CC2=O)c(OC)c1 [Compound A5] | 5 (5=80-100%) | 5 (5=80-100%) | 5 (5=80-100%) | 5 (5=80-100%) | 5 (5=80-100%) | 5 (5=80-100%) | 5 (5=80-100%) | 5 (5=80-100%) | 5 (5=80-100%) | 5 (5=80-100%)
6 | CC#Cc1cc(Cl)c(C2C(=O)CC3(CCN(C(=O)NC(C)(C)C)CC3)CC2=O)c(OC)c1 [Compound A6] | 5 (5=80-100%) | 5 (5=80-100%) | 5 (5=80-100%) | 5 (5=80-100%) | 5 (5=80-100%) | 5 (5=80-100%) | 5 (5=80-100%) | 5 (5=80-100%) | 5 (5=80-100%) | 5 (5=80-100%)
7 | CC#Cc1cc(Cl)c(C2C(=O)CC3(CCN(C(=O)NC(=O)C(C)(C)C)CC3)CC2=O)c(OC)c1 [Compound A7] | 5 (5=80-100%) | 5 (5=80-100%) | 5 (5=80-100%) | 5 (5=80-100%) | 5 (5=80-100%) | 5 (5=80-100%) | 5 (5=80-100%) | 5 (5=80-100%) | 5 (5=80-100%) | 5 (5=80-100%)
8 | CC#Cc1cc(Cl)c(C2C(=O)CC3(CCN(C(=O)C4CC4)CC3)CC2=O)c(OC)c1 [Compound A8] | 5 (5=80-100%) | 5 (5=80-100%) | 5 (5=80-100%) | 5 (5=80-100%) | 5 (5=80-100%) | 5 (5=80-100%) | 5 (5=80-100%) | 5 (5=80-100%) | 5 (5=80-100%) | 5 (5=80-100%)
9 | CC#Cc1cc(Cl)c(C2C(=O)CC3(CCN(C(=O)C(F)F)CC3)CC2=O)c(OC)c1 [Compound A9] | 5 (5=80-100%) | 5 (5=80-100%) | 5 (5=80-100%) | 5 (5=80-100%) | 5 (5=80-100%) | 5 (5=80-100%) | 5 (5=80-100%) | 5 (5=80-100%) | 5 (5=80-100%) | 5 (5=80-100%)
10 | CC#Cc1cc(Cl)c(C2C(=O)CC3(CCN(C(=O)C(C)(C)C)CC3)CC2=O)c(OC)c1 [Compound A10] | 5 (5=80-100%) | 5 (5=80-100%) | 5 (5=80-100%) | 5 (5=80-100%) | 5 (5=80-100%) | 5 (5=80-100%) | 5 (5=80-100%) | 5 (5=80-100%) | 5 (5=80-100%) | 5 (5=80-100%)
11 | CC#Cc1cc(Cl)c(C2C(=O)CC3(CCN(C(=O)NC(=O)c4ccccn4)CC3)CC2=O)c(OC)c1 [Compound A11] | 5 (5=80-100%) | 5 (5=80-100%) | 5 (5=80-100%) | 3 (3=40-59%) | 5 (5=80-100%) | 5 (5=80-100%) | 5 (5=80-100%) | 5 (5=80-100%) | 5 (5=80-100%) | 5 (5=80-100%)
12 | CC#Cc1cc(Cl)c(C2C(=O)CC3(CCN(C(=O)CC#N)CC3)CC2=O)c(OC)c1 [Compound A12] | 5 (5=80-100%) | 5 (5=80-100%) | 5 (5=80-100%) | 5 (5=80-100%) | 5 (5=80-100%) | 5 (5=80-100%) | 5 (5=80-100%) | 5 (5=80-100%) | 5 (5=80-100%) | 5 (5=80-100%)
